Test results from patent US8480638B2, “Intraocular iontophoretic device and associated methods” (Aciont, Inc., priority 2007, dated 2013).

Key:
[1] = MRI distribution of Mn^++ in the rabbit eye after iontophoresis with a handheld ocular iontophoretic device; format: in vivo; conditions: finger pressure, hydrogel 1.0M Mn^++, 2 mA for 20 minutes, return electrode on ear, 3 Tesla MRI, FIG. 7
Text: A handheld ocular iontophoretic device is constructed from a plastic tube, wherein one end is shaped to conform to the eye of a rabbit. An electroplated AgAgCl electrode is positioned in one end of the plastic tube and a hydrogel is inserted into the tube so that one side of the hydrogel contacts the electrode, while the opposite side is configured to contact the eye. The hydrogel has been previously loaded with 1.0M Mn^++. The iontophoretic device is coupled to a power source and placed against the surface of an eye of a rabbit, partially within the cul-de-sac in a dorsal location. A return electrode is attached to the ear of the rabbit, and finger pressure is used to seal the device against the eye. 2 mA of current is applied to the iontophoretic device for 20 minutes to deliver the Mn^++ from the hydrogel and into the eye.

[2] = MRI distribution of Mn^++ in the rabbit eye after iontophoresis with an iontophoretic scleral lens device with suction; format: in vivo; conditions: suction applied, hydrogel 1.0M Mn^++, 3 mA for 20 minutes, 3 Tesla MRI, FIG. 8
Text: An iontophoretic scleral lens device is configured to conform to the eye of a rabbit. An electroplated AgAgCl electrode coupled to a 1.0M Mn^++ filled hydrogel is located within a reservoir structure along the contact surface of the scleral lens. The iontophoretic device is coupled to a power source and positioned on an eye of a rabbit, such that the reservoir is located partially within the cul-de-sac in a dorsal region of the eye. A return electrode is attached to the ear of the rabbit, and suction is applied to the scleral lens to preclude movement of the lens relative to the eye surface. 3 mA of current is applied to the scleral lens device for 20 minutes to deliver the Mn^++ from the hydrogel and into the eye. […] Diffusion from this region can be seen in the white band extending toward the posterior eye tissues.

[Mn+2] [Mn^++]
Distribution of the Mn^++ within the eye of the rabbit (MRI, white contrast) [1]: delivered primarily to the eyelid and surrounding tissues with relatively little delivery into the eye itself | Depot formation in the eye (MRI, black region along the dorsal region of the eye) [2]: formation of a depot of concentrated Mn^++ | Distribution of the Mn^++ within the eye of the rabbit (MRI, white contrast) ([2]; return electrode on ear): delivered primarily into the eye tissues
